The assay addresses T1, human recombinant HDAC6 (Homo sapiens, UniProt Q9UBN7).
T1 construct: purchased Calbiochem 382180
T1 sequence (Q9UBN7 1-1215): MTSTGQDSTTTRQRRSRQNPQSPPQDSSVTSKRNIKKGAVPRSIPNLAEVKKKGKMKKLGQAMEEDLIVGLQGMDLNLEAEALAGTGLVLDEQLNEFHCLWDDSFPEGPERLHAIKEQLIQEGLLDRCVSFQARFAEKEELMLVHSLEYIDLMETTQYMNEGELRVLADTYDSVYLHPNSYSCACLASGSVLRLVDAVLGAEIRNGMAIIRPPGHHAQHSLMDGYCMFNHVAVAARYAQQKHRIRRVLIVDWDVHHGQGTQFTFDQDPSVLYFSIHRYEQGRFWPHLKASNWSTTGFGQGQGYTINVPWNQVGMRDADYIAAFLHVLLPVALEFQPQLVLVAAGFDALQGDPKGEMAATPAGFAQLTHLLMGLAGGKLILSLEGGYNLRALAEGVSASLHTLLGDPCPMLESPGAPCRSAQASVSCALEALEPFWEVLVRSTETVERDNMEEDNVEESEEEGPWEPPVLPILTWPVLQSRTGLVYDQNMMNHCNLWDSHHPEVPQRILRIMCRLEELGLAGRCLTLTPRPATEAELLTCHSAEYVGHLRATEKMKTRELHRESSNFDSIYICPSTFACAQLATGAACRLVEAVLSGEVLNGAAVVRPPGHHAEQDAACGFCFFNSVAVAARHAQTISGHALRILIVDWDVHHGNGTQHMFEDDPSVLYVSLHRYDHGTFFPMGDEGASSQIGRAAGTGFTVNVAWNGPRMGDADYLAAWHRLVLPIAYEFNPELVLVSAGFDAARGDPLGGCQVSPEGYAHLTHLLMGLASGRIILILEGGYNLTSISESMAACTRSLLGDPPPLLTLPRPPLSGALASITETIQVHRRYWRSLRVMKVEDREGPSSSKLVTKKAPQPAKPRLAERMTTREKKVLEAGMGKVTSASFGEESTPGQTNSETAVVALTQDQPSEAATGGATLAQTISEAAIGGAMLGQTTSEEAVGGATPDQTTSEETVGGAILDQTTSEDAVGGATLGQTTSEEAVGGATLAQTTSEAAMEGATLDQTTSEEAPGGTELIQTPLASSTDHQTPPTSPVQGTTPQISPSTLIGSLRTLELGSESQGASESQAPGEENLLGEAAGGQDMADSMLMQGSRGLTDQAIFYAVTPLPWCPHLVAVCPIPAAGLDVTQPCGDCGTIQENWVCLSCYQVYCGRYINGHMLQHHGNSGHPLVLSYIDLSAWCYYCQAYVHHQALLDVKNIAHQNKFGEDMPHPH
The experiment in a line: HDAC6 enzyme activity inhibition assay (HDAC Fluorimetric Drug Discovery Kit). It counts as biochemical. As to conditions: for HDAC6 selectivity (fold): HDAC1 vs HDAC6; for IC50: same protocol as the HDAC1 enzyme activity test. A digest of the protocol: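 Recombinant enzyme (0.3 μg) was incubated with 5-fold serially diluted compound and 10 μM Fluor de Lys-SIRT1 substrate for 60 min at 30° C. Developer II was then added for 30 min, fluorescence read at Ex 360/Em 460, and IC50 values were calculated.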

As a reminder, the IC50 is the concentration at which inhibition is half-maximal. For `CCS(=O)(=O)N(Cc1ccc(-c2nnc(C(F)F)o2)cc1F)c1cccc(CN2CCN(C)CC2)c1` [Compound 11405, N-(4-(5-(difluoromethyl)-1,3,4-oxadiazol-2-yl)-2-fluorobenzyl)-N-(3-((4-methylpiperazin-1-yl)methyl)phenyl)ethanesulfonamide], the “HDAC6 selectivity (fold)” value turned out to be 1493 fold and the IC50 is 0.067 µM.

For the compound `CCS(=O)(=O)N(Cc1ccc(-c2nnc(C(F)(F)F)o2)cc1F)c1cccc(CN2CCN(C(C)=O)CC2)c1` [Compound 11406, N-(3-((4-acetylpiperazin-1-yl)methyl)phenyl)-N-(2-fluoro-4-(5-(trifluoromethyl)-1,3,4-oxadiazol-2-yl)benzyl)ethanesulfonamide], the “HDAC6 selectivity (fold)” value worked out at 435 fold and the IC50 amounted to 0.23 µM.

In the case of `CCS(=O)(=O)N(Cc1ccc(-c2nnc(C(F)F)o2)cn1)c1ccc(F)c(Cl)c1` [Compound 11411, N-(3-chloro-4-fluorophenyl)-N-((5-(5-(difluoromethyl)-1,3,4-oxadiazol-2-yl)pyridin-2-yl)methyl)ethanesulfonamide], the “HDAC6 selectivity (fold)” value is 14286 fold and the IC50 turned out to be 0.007 µM.

As for `CCS(=O)(=O)N(Cc1ccc(-c2nnc(C(F)F)o2)cn1)c1ccccc1` [Compound 11412, N-((5-(5-(difluoromethyl)-1,3,4-oxadiazol-2-yl)pyridin-2-yl)methyl)-N-phenylethanesulfonamide], the “HDAC6 selectivity (fold)” value is 8333 fold and the IC50 was found to be 0.012 µM.

Take `CS(=O)(=O)N1CCC(S(=O)(=O)N(Cc2ccc(-c3nnc(C(F)F)o3)cn2)c2ccccc2)CC1` [Compound 11426, N-((5-(5-(difluoromethyl)-1,3,4-oxadiazol-2-yl)pyridin-2-yl)methyl)-1-(methylsulfonyl)-N-phenylpiperidine-4-sulfonamide]: the “HDAC6 selectivity (fold)” value stood at 7692 fold and the IC50 was determined as 0.013 µM.

Regarding `CCS(=O)(=O)N(Cc1ccc(-c2nnc(C(F)F)o2)cc1F)c1cccc(C2CCN(C)CC2)c1` [Compound 11427, N-(4-(5-(difluoromethyl)-1,3,4-oxadiazol-2-yl)-2-fluorobenzyl)-N-(3-(1-methylpiperidin-4-yl)phenyl)ethanesulfonamide], the “HDAC6 selectivity (fold)” value is on record as 352 fold and the 50% inhibitory concentration (IC50) is 0.284 µM.

Turning to `O=S(=O)(C1CCOC1)N(Cc1ccc(-c2nnc(C(F)F)o2)cn1)c1ccccc1` (stereo not shown) [Compound 11428, N-((5-(5-(difluoromethyl)-1,3,4-oxadiazol-2-yl)pyridin-2-yl)methyl)-N-phenyltetrahydrofuran-3-sulfonamide], the “HDAC6 selectivity (fold)” value is recorded as 6667 fold and the IC50 is 0.015 µM.

As for `CS(=O)(=O)N(Cc1ccc(-c2nnc(C(F)F)o2)cn1)c1ccc(F)c(Cl)c1` [Compound 11433, N-(3-chloro-4-fluorophenyl)-N-((5-(5-(difluoromethyl)-1,3,4-oxadiazol-2-yl)pyridin-2-yl)methyl)methanesulfonamide], the “HDAC6 selectivity (fold)” value came out at 8333 fold and the IC50 is 0.012 µM.

As for `CC(=O)N1CC(N2CCC(S(=O)(=O)N(Cc3ccc(-c4nnc(C(F)F)o4)cc3F)c3ccc(F)c(Cl)c3)CC2)C1` [Compound 11447, 1-(1-acetylazetidin-3-yl)-N-(3-chloro-4-fluorophenyl)-N-(4-(5-(difluoromethyl)-1,3,4-oxadiazol-2-yl)-2-fluorobenzyl)piperidine-4-sulfonamide], the “HDAC6 selectivity (fold)” value is reported as 5556 fold and the IC50 amounted to 0.018 µM.

Turning to `CS(=O)(=O)N1CC(N2CCC(S(=O)(=O)N(Cc3ccc(-c4nnc(C(F)F)o4)cc3F)c3ccc(F)c(Cl)c3)CC2)C1` [Compound 11448, N-(3-chloro-4-fluorophenyl)-N-(4-(5-(difluoromethyl)-1,3,4-oxadiazol-2-yl)-2-fluorobenzyl)-1-(1-(methylsulfonyl)azetidin-3-yl)piperidine-4-sulfonamide], the “HDAC6 selectivity (fold)” value is given as 4762 fold and the 50% inhibitory concentration (IC50) stood at 0.021 µM.

With `CCS(=O)(=O)N(Cc1ccc(-c2nnc(C(F)F)o2)cc1F)c1cccc2c1cnn2C` [Compound 11520, N-(4-(5-(difluoromethyl)-1,3,4-oxadiazol-2-yl)-2-fluorobenzyl)-N-(1-methyl-1H-indazol-4-yl)ethanesulfonamide], the “HDAC6 selectivity (fold)” value stood at 3125 fold and the IC50 stood at 0.032 µM.

For `CCS(=O)(=O)N(Cc1ccc(-c2nnc(C(F)F)o2)cc1F)c1cccc2cnn(C)c12` [Compound 11522, N-(4-(5-(difluoromethyl)-1,3,4-oxadiazol-2-yl)-2-fluorobenzyl)-N-(1-methyl-1H-indazol-7-yl)ethanesulfonamide], the “HDAC6 selectivity (fold)” value was found to be 4167 fold and the IC50 is 0.024 µM.

For `CCS(=O)(=O)N(Cc1ccc(-c2nnc(C(F)F)o2)cn1)c1cccc2c1cnn2C` [Compound 11539, N-((5-(5-(difluoromethyl)-1,3,4-oxadiazol-2-yl)pyridin-2-yl)methyl)-N-(1-methyl-1H-indazol-4-yl)ethanesulfonamide], the “HDAC6 selectivity (fold)” value amounted to 4348 fold and the IC50 is 0.023 µM.

Regarding `CCS(=O)(=O)N(Cc1ccc(-c2nnc(C(F)F)o2)cn1)c1ccc2cnn(C)c2c1` [Compound 11540, N-((5-(5-(difluoromethyl)-1,3,4-oxadiazol-2-yl)pyridin-2-yl)methyl)-N-(1-methyl-1H-indazol-6-yl)ethanesulfonamide], the “HDAC6 selectivity (fold)” value is 10000 fold and the IC50 came out at 0.01 µM.

Take `CCS(=O)(=O)N(Cc1ccc(-c2nnc(C(F)F)o2)cn1)c1cccc2cnn(C)c12` [Compound 11541, N-((5-(5-(difluoromethyl)-1,3,4-oxadiazol-2-yl)pyridin-2-yl)methyl)-N-(1-methyl-1H-indazol-7-yl)ethanesulfonamide]: the “HDAC6 selectivity (fold)” value was determined as 6250 fold and the IC50 stood at 0.016 µM.

Regarding `CN1CCN(CCS(=O)(=O)N(Cc2ccc(-c3nnc(C(F)F)o3)cc2F)c2ccc(F)c(Cl)c2)CC1` [Compound 11552, N-(3-chloro-4-fluorophenyl)-N-(4-(5-(difluoromethyl)-1,3,4-oxadiazol-2-yl)-2-fluorobenzyl)-2-(4-methylpiperazin-1-yl)ethane-1-sulfonamide], the “HDAC6 selectivity (fold)” value came to 7143 fold and the IC50 amounted to 0.014 µM.

For `CC(=O)N1CCN(CCS(=O)(=O)N(Cc2ccc(-c3nnc(C(F)F)o3)cc2F)c2ccc(F)c(Cl)c2)CC1` [Compound 11553, 2-(4-acetylpiperazin-1-yl)-N-(3-chloro-4-fluorophenyl)-N-(4-(5-(difluoromethyl)-1,3,4-oxadiazol-2-yl)-2-fluorobenzyl)ethane-1-sulfonamide], the “HDAC6 selectivity (fold)” value was found to be 5882 fold and the IC50 was found to be 0.017 µM.

As to `CS(=O)(=O)N1CCN(CCS(=O)(=O)N(Cc2ccc(-c3nnc(C(F)F)o3)cc2F)c2ccc(F)c(Cl)c2)CC1` [Compound 11554, N-(3-chloro-4-fluorophenyl)-N-(4-(5-(difluoromethyl)-1,3,4-oxadiazol-2-yl)-2-fluorobenzyl)-2-(4-(methylsulfonyl)piperazin-1-yl)ethane-1-sulfonamide], the “HDAC6 selectivity (fold)” value worked out at 4348 fold and the IC50 worked out at 0.023 µM.

As for `CS(=O)(=O)N(Cc1ncc(-c2nnc(C(F)F)o2)cn1)c1ccccc1` [Compound 11564, N-((5-(5-(difluoromethyl)-1,3,4-oxadiazol-2-yl)pyrimidin-2-yl)methyl)-N-phenylmethanesulfonamide], the “HDAC6 selectivity (fold)” value amounted to 4762 fold and the IC50 turned out to be 0.021 µM.

With `CS(=O)(=O)N(Cc1ccc(-c2nnc(C(F)F)o2)nn1)c1ccccc1` [Compound 11566, N-((6-(5-(difluoromethyl)-1,3,4-oxadiazol-2-yl)pyridazin-3-yl)methyl)-N-phenylmethanesulfonamide], the “HDAC6 selectivity (fold)” value came to 1124 fold and the IC50 came to 0.089 µM.

The values above are taken from patent publication US10538498B2, “1,3,4-oxadiazole sulfonamide derivative compounds as histone deacetylase 6 inhibitor, and the pharmaceutical composition comprising the same” (Chong Kun Dang Pharmaceutical Corp., priority 2015, dated 2020).
